Data taken from ChEMBL document CHEMBL1145094, “A novel and selective 5-HT2 receptor agonist with ocular hypotensive activity: (S)-(+)-1-(2-aminopropyl)-8,9-dihydropyrano[3,2-e]indole” (J Med Chem, 2003).

Tests used:
[1] = target: T1, 5-hydroxytryptamine receptor 2A (Rattus norvegicus, UniProt P14842); assay: In vitro relative agonist activity against 5-hydroxytryptamine 2A using PI assay in rat vascular smooth muscle cells; format: functional
[2] = target: 5-hydroxytryptamine receptor 6 (Homo sapiens, UniProt P50406); assay: Inhibitory constant against human 5-hydroxytryptamine 6 receptor using [3H]LSD radioligand
Monkey [3] = assay: Tested for the ability to lower IOP in conscious cynomolgus monkeys with laser-induced ocular hypertension after 1 hr postdose of the compound; format: functional, Cercopithecidae, Eye
[4] = target: Alpha-2B adrenergic receptor (Rattus norvegicus, UniProt P19328); assay: Inhibitory constant against Alpha-2B adrenergic receptor using [3H]MK-912 radioligand
[5] = target: 5-hydroxytryptamine receptor 2A (Rattus norvegicus) (UniProt P14842); assay: In vitro efficacy against rat 5-hydroxytryptamine 2A receptor determined by using PI assay (Emax)
[6] = target: Sodium-dependent serotonin transporter (Homo sapiens, UniProt P31645); assay: Inhibitory constant against human serotonin transporter using [3H]N-Me-citalopram radioligand
[7] = target: Alpha-1B adrenergic receptor (Rattus norvegicus, UniProt P15823); assay: Inhibitory constant against Alpha-1B adrenergic radioligand
[8] = target: T1, 5-hydroxytryptamine receptor 2A; assay: In vitro inhibition of [125I]DOI binding to 5-hydroxytryptamine 2A receptor in rat cerebral cortex; format: tissue-based
[9] = target: T2, 5-hydroxytryptamine receptor 2C (Homo sapiens, UniProt P28335); assay: Inhibitory constant against cloned human 5-hydroxytryptamine 2C receptor using with [125I]- DOI radioligand
T2 sequence (P28335 whole entry): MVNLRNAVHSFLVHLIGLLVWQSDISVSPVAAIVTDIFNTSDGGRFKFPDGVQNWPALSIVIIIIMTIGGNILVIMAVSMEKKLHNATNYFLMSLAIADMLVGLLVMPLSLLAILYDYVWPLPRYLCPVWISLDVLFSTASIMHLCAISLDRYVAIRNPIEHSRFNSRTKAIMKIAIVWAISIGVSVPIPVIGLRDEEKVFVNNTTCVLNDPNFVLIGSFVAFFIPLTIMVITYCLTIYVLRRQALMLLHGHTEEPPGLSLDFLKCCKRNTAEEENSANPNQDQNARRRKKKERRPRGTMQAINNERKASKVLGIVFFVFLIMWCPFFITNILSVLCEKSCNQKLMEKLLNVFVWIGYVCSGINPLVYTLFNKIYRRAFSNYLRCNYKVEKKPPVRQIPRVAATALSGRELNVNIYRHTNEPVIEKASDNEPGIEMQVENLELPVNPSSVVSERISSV

[10] = target: T3, 5-hydroxytryptamine receptor 1A (Homo sapiens, UniProt P08908); assay: In vitro inhibitory concentration required against [3H]8-OH-DPAT binding to cloned human 5-hydroxytryptamine 1A receptor
T3 sequence (P08908 whole entry): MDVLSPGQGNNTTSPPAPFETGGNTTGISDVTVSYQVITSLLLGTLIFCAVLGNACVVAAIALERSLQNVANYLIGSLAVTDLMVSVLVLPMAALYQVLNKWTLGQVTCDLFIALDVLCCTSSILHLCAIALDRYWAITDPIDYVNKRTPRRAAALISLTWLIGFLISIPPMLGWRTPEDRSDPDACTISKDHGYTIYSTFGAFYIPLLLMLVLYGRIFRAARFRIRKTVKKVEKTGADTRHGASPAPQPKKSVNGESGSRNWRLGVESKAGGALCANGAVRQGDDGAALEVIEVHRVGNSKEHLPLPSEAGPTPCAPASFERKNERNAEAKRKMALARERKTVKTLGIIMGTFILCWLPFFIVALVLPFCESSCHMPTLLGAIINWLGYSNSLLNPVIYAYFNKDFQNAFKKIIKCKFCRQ

[11] = target: 5-hydroxytryptamine receptor 4 (Homo sapiens, UniProt Q13639); assay: Inhibitory constant against 5-hydroxytryptamine 4 receptor using [3H]GR-113808 radioligand
[12] = target: 5-hydroxytryptamine receptor 1D (Homo sapiens, UniProt P28221); assay: Inhibitory constant against human 5-hydroxytryptamine 1D receptor using [3H]5-CT radioligand
Monkey [13] = assay: Tested for the ability to lower IOP in conscious cynomolgus monkeys with laser-induced ocular hypertension after 3h postdose of the compound; format: functional, Cercopithecidae, Eye
[14] = target: 5-hydroxytryptamine receptor 2A (Rattus norvegicus) (UniProt P14842); assay: In vitro efficacy against rat 5-hydroxytryptamine 2A receptor was determined by using CA+ assay (Emax)
[15] = target: T4, 5-hydroxytryptamine receptor 2A (Homo sapiens, UniProt P28223); assay: Inhibitory constant against cloned human 5-hydroxytryptamine 2A receptor using with [125I]- DOI radioligand
[16] = target: T5, Alpha-1A adrenergic receptor (Rattus norvegicus, UniProt P43140); assay: Inhibitory constant against alpha-1A receptor using [3H]-7-MeO prazosin radioligand
T5 sequence (P43140 whole entry): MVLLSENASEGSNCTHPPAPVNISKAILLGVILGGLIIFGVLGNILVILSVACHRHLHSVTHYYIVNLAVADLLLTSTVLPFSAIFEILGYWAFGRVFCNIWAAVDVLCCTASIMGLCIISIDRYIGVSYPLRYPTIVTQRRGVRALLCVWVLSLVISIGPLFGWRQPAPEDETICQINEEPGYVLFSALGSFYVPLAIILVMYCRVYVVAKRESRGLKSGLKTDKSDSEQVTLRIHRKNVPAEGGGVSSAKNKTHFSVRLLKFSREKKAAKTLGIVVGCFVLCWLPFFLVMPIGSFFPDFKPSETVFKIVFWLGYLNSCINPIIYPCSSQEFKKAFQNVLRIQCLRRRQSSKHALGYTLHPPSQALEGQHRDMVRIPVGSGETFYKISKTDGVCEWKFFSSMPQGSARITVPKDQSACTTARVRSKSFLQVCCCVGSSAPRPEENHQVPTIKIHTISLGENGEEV

[17] = target: Alpha-2A adrenergic receptor (Homo sapiens, UniProt P08913); assay: (§1) Inhibitory concentration required against Alpha-2A adrenergic receptor using [3H]clonidine radioligand
[18] = target: T6, Alpha-2C adrenergic receptor (Homo sapiens, UniProt P18825); assay: as §1
[19] = target: 5-hydroxytryptamine receptor 5A (Homo sapiens, UniProt P47898); assay: Inhibitory constant against human 5-hydroxytryptamine 5A receptor using [3H]LSD radioligand
[20] = target: 5-hydroxytryptamine receptor 3A (Homo sapiens, UniProt P46098); assay: Inhibitory constant against 5-hydroxytryptamine 3 receptor using [3H]GR-65630 radioligand
[21] = target: T1, 5-hydroxytryptamine receptor 2A; assay: In vitro inhibitory constant against [125I]DOI binding to 5-hydroxytryptamine 2A receptor in rat cerebral cortex; format: tissue-based
[22] = target: Sodium-dependent noradrenaline transporter (Homo sapiens, UniProt P23975); assay: Inhibitory constant against norepinephrine transporter receptor using [3H]radioligand
[23] = target: 5-hydroxytryptamine receptor 1B (Homo sapiens, UniProt P28222); assay: Inhibitory constant against 5-hydroxytryptamine 1B receptor using with [125I]- cyanopindolol radioligand
Monkey [24] = assay: Tested for the ability to lower IOP in conscious cynomolgus monkeys with laser-induced ocular hypertension after 6 hr postdose of the compound; format: functional, Cercopithecidae, Eye
[25] = target: 5-hydroxytryptamine receptor 2B (Homo sapiens, UniProt P41595); assay: Inhibitory constant against cloned human 5-hydroxytryptamine 2B receptor using with [125I]- DOI radioligand
[26] = target: T3, 5-hydroxytryptamine receptor 1A; assay: Tested for functional response on CHO cells expressing cloned human 5-hydroxytryptamine 1A receptor; format: cell-based
[27] = target: T5, Alpha-1A adrenergic receptor; assay: Inhibitory constant against Alpha-1B adrenergic receptor using [3H]-7-MeO prazosin radioligand
[28] = target: T5, Alpha-1A adrenergic receptor; assay: Inhibitory constant against Alpha-1A adrenergic receptor using [3H]-7-MeO prazosin radioligand
[29] = target: 5-hydroxytryptamine receptor 7 (Homo sapiens, UniProt P34969); assay: Inhibitory constant against human 5-hydroxytryptamine 7 receptor using [3H]LSD radioligand
[30] = target: T6, Alpha-2C adrenergic receptor; assay: Inhibitory concentration required against Alpha-2C adrenergic receptor using [3H]clonidine radioligand
[31] = target: T4, 5-hydroxytryptamine receptor 2A; assay: Inhibitory constant determined against cloned human 5-hydroxytryptamine 2A receptor using with [125I]- DOI radioligand
Target sequence in this assay (P28223 whole entry): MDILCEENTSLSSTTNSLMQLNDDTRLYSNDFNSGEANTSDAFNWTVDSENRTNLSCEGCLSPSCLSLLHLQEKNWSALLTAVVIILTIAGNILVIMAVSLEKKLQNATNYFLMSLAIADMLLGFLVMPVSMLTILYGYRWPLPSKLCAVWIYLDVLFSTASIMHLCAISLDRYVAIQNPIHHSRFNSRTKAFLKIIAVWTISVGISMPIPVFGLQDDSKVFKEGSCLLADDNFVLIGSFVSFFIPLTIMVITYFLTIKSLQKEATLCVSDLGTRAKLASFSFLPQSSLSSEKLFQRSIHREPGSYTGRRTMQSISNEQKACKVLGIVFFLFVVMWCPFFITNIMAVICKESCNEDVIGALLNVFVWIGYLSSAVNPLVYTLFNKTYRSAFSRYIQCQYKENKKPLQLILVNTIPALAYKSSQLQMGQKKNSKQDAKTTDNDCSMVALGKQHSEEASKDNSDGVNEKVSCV

5-hydroxytryptamine receptor 2B, sequence (P41595 whole entry): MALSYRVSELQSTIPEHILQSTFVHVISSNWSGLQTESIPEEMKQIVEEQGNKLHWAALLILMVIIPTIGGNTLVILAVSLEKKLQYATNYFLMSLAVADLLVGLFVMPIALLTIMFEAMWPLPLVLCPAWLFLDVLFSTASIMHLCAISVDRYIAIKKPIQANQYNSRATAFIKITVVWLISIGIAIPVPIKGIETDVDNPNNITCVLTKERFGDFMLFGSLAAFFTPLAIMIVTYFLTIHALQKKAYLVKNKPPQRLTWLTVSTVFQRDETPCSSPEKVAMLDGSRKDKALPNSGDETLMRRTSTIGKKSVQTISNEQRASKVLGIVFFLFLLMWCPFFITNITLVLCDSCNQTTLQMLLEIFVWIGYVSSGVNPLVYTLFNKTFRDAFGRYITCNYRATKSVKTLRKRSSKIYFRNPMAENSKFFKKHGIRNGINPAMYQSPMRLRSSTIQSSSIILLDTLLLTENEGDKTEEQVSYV
T1 sequence (P14842 whole entry): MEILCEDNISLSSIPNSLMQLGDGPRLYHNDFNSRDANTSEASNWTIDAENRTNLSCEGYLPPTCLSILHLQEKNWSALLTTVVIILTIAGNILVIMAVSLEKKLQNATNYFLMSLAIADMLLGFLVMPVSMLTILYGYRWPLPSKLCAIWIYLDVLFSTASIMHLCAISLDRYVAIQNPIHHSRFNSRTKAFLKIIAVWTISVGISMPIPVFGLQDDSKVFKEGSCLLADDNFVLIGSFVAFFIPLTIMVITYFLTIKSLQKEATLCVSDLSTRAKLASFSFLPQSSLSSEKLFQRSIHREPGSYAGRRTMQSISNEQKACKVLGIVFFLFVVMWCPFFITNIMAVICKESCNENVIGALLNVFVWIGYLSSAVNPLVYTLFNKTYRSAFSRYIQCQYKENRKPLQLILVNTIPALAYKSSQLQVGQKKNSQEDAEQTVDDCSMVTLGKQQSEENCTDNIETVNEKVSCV
5-hydroxytryptamine receptor 2A (Rattus norvegicus), sequence (P14842 whole entry): as above
5-hydroxytryptamine receptor 6, sequence (P50406 whole entry): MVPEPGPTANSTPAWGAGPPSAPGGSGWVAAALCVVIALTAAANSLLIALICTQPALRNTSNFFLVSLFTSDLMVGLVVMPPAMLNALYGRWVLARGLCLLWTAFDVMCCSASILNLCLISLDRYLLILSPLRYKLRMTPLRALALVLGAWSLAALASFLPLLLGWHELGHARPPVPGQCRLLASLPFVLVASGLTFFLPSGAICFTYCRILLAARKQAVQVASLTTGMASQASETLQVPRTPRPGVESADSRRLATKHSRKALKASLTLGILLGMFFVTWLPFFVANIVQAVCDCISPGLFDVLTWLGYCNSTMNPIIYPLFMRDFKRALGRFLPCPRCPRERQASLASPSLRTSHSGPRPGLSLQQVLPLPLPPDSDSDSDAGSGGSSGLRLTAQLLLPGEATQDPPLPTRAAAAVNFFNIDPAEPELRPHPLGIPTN
5-hydroxytryptamine receptor 5A, sequence (P47898 whole entry, looked up): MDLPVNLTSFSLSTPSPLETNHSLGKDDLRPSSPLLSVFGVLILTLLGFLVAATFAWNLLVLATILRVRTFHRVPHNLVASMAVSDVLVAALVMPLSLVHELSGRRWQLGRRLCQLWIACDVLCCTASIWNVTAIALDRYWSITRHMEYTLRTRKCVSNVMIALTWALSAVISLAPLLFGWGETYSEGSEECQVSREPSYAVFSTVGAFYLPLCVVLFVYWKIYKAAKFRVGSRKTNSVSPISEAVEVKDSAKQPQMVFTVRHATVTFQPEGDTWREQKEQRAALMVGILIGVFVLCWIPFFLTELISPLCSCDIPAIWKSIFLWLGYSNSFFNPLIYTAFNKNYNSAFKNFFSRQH
Sodium-dependent noradrenaline transporter, sequence (P23975 whole entry): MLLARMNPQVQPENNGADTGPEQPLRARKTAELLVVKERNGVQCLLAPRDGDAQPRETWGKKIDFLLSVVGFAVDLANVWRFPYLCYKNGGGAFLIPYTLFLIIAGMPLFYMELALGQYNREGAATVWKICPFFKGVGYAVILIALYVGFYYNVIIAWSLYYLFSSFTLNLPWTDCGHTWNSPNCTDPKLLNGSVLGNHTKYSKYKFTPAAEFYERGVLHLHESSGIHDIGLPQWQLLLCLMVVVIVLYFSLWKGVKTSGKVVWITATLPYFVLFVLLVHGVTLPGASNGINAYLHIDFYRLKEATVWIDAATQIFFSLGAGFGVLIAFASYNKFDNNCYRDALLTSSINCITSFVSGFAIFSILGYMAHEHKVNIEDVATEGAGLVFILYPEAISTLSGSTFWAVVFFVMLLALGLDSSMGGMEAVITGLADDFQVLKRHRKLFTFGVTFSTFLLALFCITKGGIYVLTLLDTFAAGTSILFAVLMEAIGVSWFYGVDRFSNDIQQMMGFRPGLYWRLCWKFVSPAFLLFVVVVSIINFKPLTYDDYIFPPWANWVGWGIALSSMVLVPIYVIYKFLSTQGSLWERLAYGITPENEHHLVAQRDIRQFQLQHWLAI
Alpha-2A adrenergic receptor, sequence (P08913 whole entry): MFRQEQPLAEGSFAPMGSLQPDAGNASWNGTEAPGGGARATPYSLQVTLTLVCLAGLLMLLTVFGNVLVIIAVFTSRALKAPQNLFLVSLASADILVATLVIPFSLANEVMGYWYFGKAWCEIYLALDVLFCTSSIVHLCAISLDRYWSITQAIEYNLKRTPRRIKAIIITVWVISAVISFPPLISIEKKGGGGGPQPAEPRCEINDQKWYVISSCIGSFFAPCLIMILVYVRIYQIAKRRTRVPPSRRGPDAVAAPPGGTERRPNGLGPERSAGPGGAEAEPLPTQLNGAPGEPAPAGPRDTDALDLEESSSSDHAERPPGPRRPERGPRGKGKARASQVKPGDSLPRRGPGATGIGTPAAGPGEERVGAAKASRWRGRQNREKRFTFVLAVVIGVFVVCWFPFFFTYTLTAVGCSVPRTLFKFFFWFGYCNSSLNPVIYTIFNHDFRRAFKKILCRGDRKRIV
5-hydroxytryptamine receptor 4, sequence (Q13639 whole entry): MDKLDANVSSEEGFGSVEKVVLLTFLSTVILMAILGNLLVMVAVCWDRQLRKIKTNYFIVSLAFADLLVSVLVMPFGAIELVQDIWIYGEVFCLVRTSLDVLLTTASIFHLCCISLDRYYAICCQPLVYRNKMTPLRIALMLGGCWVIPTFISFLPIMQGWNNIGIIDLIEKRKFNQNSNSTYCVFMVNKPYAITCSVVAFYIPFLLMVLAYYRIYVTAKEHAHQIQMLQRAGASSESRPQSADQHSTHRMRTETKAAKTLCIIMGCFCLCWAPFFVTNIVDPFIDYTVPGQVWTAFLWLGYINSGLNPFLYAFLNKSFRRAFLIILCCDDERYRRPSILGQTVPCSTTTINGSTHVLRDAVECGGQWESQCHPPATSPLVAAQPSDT
Sodium-dependent serotonin transporter, sequence (P31645 whole entry): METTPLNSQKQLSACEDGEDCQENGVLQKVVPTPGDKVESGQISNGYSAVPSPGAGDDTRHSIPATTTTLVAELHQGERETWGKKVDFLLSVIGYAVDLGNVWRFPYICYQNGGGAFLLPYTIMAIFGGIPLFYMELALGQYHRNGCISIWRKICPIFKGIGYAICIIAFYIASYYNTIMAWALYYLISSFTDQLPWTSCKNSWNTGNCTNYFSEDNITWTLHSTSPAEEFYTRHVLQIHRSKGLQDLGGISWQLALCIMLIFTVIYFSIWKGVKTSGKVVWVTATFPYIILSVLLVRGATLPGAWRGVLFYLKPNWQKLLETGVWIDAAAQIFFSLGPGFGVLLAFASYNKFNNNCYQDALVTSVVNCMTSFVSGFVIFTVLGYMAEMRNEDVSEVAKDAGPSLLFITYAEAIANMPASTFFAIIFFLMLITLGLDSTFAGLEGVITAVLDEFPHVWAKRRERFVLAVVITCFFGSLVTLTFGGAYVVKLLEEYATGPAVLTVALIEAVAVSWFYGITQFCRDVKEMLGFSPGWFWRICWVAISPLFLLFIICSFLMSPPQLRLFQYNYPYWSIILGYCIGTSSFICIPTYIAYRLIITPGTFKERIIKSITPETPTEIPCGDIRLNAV
5-hydroxytryptamine receptor 1B, sequence (P28222 whole entry): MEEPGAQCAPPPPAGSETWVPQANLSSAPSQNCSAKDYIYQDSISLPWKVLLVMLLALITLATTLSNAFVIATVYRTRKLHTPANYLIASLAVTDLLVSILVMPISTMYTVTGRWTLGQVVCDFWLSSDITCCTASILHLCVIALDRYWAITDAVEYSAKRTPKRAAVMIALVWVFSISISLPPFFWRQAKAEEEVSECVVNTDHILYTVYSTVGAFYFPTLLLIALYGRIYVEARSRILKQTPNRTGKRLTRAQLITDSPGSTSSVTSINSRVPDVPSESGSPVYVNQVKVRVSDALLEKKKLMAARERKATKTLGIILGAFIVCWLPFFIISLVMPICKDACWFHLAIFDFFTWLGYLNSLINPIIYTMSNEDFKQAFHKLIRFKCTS

For `C[C@H](N)Cc1c[nH]c2ccc3c(c12)CCCO3`, the EC50 [1] was 80.1 nM, the Ki [2] was 2200 nM and the Reduction (Monkey [3]) was less than 18.1%. For the same molecule, the Ki [4] was greater than 10000 nM, the Efficacy [5] was 90% and the Ki [6] was greater than 10000 nM. For the same molecule, the Ki [7] was greater than 10000 nM, the IC50 [8] was 0.5 nM and the Ki [9] was 3.4 nM. For the same molecule, the IC50 [10] was greater than 10000 nM, the Ki [11] was 1700 nM and the Ki [12] was greater than 10000 nM. For the same molecule, the Reduction (Monkey [13]) was less than 33.2%, the Efficacy [14] was 103% and the Ki [15] was 2 nM. For the same molecule, the Ki [16] was greater than 10000 nM, the IC50 [17] was 19000 nM and the IC50 [18] was 14000 nM. It also gave a Ki [19] greater than 10000 nM, a Ki [20] greater than 10000 nM and a Ki [21] of 0.2 nM. The Ki [22] was greater than 10000 nM, the Ki [23] was 3300 nM and the Reduction (Monkey [24]) was less than 37%. It also gave a Ki [25] of 5.3 nM.
With `CC(N)Cc1c[nH]c2ccc(O)cc12` (stereo not given) the Efficacy [5] was 98%, the IC50 [10] was 19.6 nM and the EC50 [26] was 378 nM. It also gave an Efficacy [14] of 99%, a Ki [15] of 12 nM and a Ki [25] of 13 nM.
For `CC(N)Cc1c[nH]c2ccc3c(c12)CCCO3` (stereo not given), the Ki [27] was greater than 30000 nM, the Ki [2] was 400 nM and the Ki [28] was greater than 30000 nM. It also gave a Reduction (Monkey [3]) of less than 16%, a Ki [4] of 10000 nM and an Efficacy [5] of 81%. For the same molecule, the Ki [6] was greater than 10000 nM, the IC50 [8] was 0.7 nM and the Ki [9] was 5.5 nM. For the same molecule, the IC50 [10] was 10900 nM, the Ki [11] was 1800 nM and the Reduction (Monkey [13]) was less than 28%. It also gave an EC50 [26] greater than 10000 nM, an Efficacy [14] of 97% and a Ki [29] of 24000 nM. For the same molecule, the Ki [15] was 3.6 nM, the IC50 [17] was greater than 10000 nM and the IC50 [30] was greater than 30000 nM. For the same molecule, the Ki [19] was 1900 nM, the Ki [20] was greater than 10000 nM and the Ki [21] was 0.3 nM. For the same molecule, the Ki [22] was greater than 30000 nM, the Ki [23] was greater than 10000 nM and the Reduction (Monkey [24]) was less than 22.9%. The Ki [25] was 13 nM.
With `COc1cc(C[C@@H](C)N)c(OC)cc1I` the EC50 [1] was 27.7 nM, the Reduction (Monkey [3]) was 11% and the IC50 [8] was 0.4 nM. The Ki [9] was 4 nM, the Reduction (Monkey [13]) was 25.3% and the Efficacy [14] was 33%. It also gave a Ki [21] of 0.1 nM, a Reduction (Monkey [24]) of 34.4% and a Ki [25] of 18 nM.
For `CN(C)CCc1c[nH]c2ccc3c(c12)CCCO3`, the Efficacy [5] was 63%, the Ki [9] was 16 nM and the IC50 [10] was 562 nM. The Efficacy [14] was 47%, the Ki [31] was 17 nM and the Ki [25] was 26 nM.
In the case of `Cn1cc(CCN)c2c3c(ccc21)OCCC3`, the EC50 [1] is reported as 213 nM, the Efficacy [5] is reported as 96% and the IC50 [8] is reported as 2.8 nM. It also gave an IC50 [10] of 8410 nM, an Efficacy [14] of 70% and a Ki [31] of 8.2 nM. It also gave a Ki [21] of 1.1 nM.
For `COc1ccc2[nH]cc(CC(C)N)c2c1` (stereo not given), the EC50 [1] was 285 nM, the Reduction (Monkey [3]) was 21.6% and the Efficacy [5] was 107%. The IC50 [8] was 4.4 nM, the Ki [9] was 8.3 nM and the IC50 [10] was 86.4 nM. The Reduction (Monkey [13]) was 35.2%, the EC50 [26] was 564 nM and the Efficacy [14] was 96%. The Ki [15] was 4.6 nM, the Ki [21] was 1.6 nM and the Reduction (Monkey [24]) was 33.4%. The Ki [25] was 7.8 nM.
`NCCc1c[nH]c2ccc3c(c12)CCCO3` gave an EC50 [1] of 181 nM, an Efficacy [5] of 99% and an IC50 [8] of 1.8 nM. It also gave a Ki [9] of 6.3 nM, an IC50 [10] of 287 nM and an Efficacy [14] of 99%. The Ki [31] was 4.9 nM, the Ki [21] was 0.6 nM and the Ki [25] was 14 nM.
With `C[C@@H](N)Cc1c[nH]c2ccc3c(c12)CCCO3` the EC50 [1] was 292 nM, the Reduction (Monkey [3]) was less than 12.7% and the Efficacy [5] was 83%. The IC50 [8] was 1.5 nM, the Ki [9] was 20 nM and the IC50 [10] was 8650 nM. For the same molecule, the Reduction (Monkey [13]) was less than 24.8%, the Efficacy [14] was 71% and the Ki [31] was 3.6 nM. The Ki [21] was 0.5 nM, the Reduction (Monkey [24]) was less than 32.5% and the Ki [25] was 19 nM.
`CC(N)Cc1cn(C)c2ccc3c(c12)CCCO3` (stereo not given) was tested, and the EC50 [1] was 134 nM, the Reduction (Monkey [3]) was less than 18.8% and the Efficacy [5] was 102%. The IC50 [8] was 0.5 nM, the Ki [9] was 2.7 nM and the IC50 [10] was 12200 nM. The Reduction (Monkey [13]) was less than 28%, the EC50 [26] was greater than 10000 nM and the Efficacy [14] was 79%. It also gave a Ki [15] of 28 nM, a Ki [21] of 0.2 nM and a Reduction (Monkey [24]) of less than 26.1%. The Ki [25] was 11 nM.
